From US20130331326A1, “METHOD OF INDUCING HEMATOPOIETIC RECONSTRUCTION” (DUKE UNIVERSITY, priority 2011, published 2013)
“Also recorded” adds a separate entry of the source.

How the values were obtained:
BM KSL cells [1] = assay: Culture of 300 cGy-irradiated BM KSL cells with BM ECs or TSF cytokines; CFC and CFU-S12 recovery; type: cell-based, mouse
Method: BM cells were collected into PBS (Cellgro, Manassas, Va.) with 10% fetal bovine serum (Hyclone, Logan, Utah) and 1% penicillin/streptomycin (GIBCO, Grand Island, N.Y.). Viable BM cells were quantified using Trypan Blue Stain (Lonza, Basel, Switzerland) to exclude apoptotic and dead cells. Cells were then incubated with anti-c-kit, anti-Sca-1, anti-lineage cocktail, anti-CD41, anti-CD48, and anti-CD150 antibodies (Biolegend and eBiosciences, San Diego, Calif.; BD, San Jose, Calif.) to measure ckit^+sca-1^+lin^− (KSL) progenitor cells or CD150′CD41^−CD48^−KSL (SLAM/KSL) as previously described (Kiel et al, Cell 121:1109-1121 (2005)). Colony forming cells (CFCs) and CFU-S12 assays were also performed to measure functional hematopoietic stem/progenitor cell content. For CFCs, either whole BM or cultured lineage−cells, or KSL cells were plated onto methylcellulose (StemCell Technologies, Vancouver, BC, Canada), and colonies were scored on day 14. 1×10^5 BM or 2×10^5 cells were collected from donor mice and injected via tail vein into recipient C57B16 mice that had been given 950 cGy TBI. At day +12 post-injection, spleens from recipient mice were harvested and stained with Bouin's fixative solution (Ricca Chemical Company, Arlington, Tex.), and colonies were counted as previously described (Till and MeRadiat. Res. 14:213-222 (1961)). Complete blood counts were performed on a HemaVet 950 (Drew Scientific, Dallas, Tex.). […]

BM KSL cells [2] = assay: Culture of non-irradiated BM KSL cells with TSF with and without EGF; type: cell-based, mouse; details: TSF + 20 ng/ml EGF, 7 days, vs cytokines alone
BM KSL cells [3] = assay: Cell cycle analysis (Ki67/7-AAD) of irradiated BM KSL cells; type: cell-based, mouse
Method: Cell apoptosis and necrosis were analyzed by flow cytometry according to manufacturer's protocols with Annexin V-FITC and 7-AAD staining (BD, San Jose, Calif.). […] Cells were fixed and permeabilized with Fix Buffer I and Perm Buffer III (BD), and then stained with mouse anti-phospho-AKT-S473 PE (BD) or isotype control. Cell cycle analysis was performed by flow cytometric analysis modified from previous reports (Jordan et al, Exp. Hematol. 24:1347-1355 (1996), Chute et al, Hum. Gene Ther. 11:2515-2528 (2000), Sungartz et al, Blood 119:1308-1309 (2012)). Briefly, cells were fixed and permeabilized with 0.25% Saponin (Calbiochem, La Jolla, Calif.), 2.5% paraformaldehyde, 2% FBS in 1×PBS, and then labeled with Ki67-FITC and 7-AAD (BD). BM lin^− cells from VavCre;EGFR^+/+ or VavCre;EGER^fl/fl were cultured with TSF or TSF+10 μM erlotinib, or TSF following 300 cGy for 72 hours, and then collected for total cell counts and CFCs analysis.

MAPK = assay: Phosphorylation of MAPK in irradiated BM KSL cells; type: cell-based, mouse; details: EGF treatment of irradiated BM KSL cells in culture; data not shown
Description: EGFR signaling can activate multiple signaling cascades, including the MAPK and PI3k/Akt signaling pathways (Sordella et al, Science 305:1163-1167 (2004), Yang et al, Nature 480:118-122 (2011), Hynes and Lane, Nat. Rev. Cancer 5:341-354 (2005), Wheeler et al, Nat. Rev. Clin. Oncol. 7:493-507 (2010)). […] A further examination was made of whether inhibition of Akt signaling could negate EGF-mediated induction of BM stem/progenitor cell cycling following irradiation.

EGFR = assay: Phosphorylation of EGFR-Y845 in BM KSL cells in culture; type: cell-based, mouse; details: wild type BM KSL cells treated with EGF in vitro (20 ng/mL, 15 minutes)
C57B16 mice = assay: Survival of C57B16 mice after 700 cGy TBI; type: in vivo, mouse; details: 0.5 ug/G EGF daily x 7 days from +2 hours, saline controls 57%
[4] = 20 ng/mL EGF added to non-contact FL/+ EC cultures of 300 cGy-irradiated BM KSL cells, vs FL/+ ECs alone
[5] = EGF added to irradiated BM KSL cells cultured with cytokines (TSF), day 7, vs cytokines alone
[6] = 300 cGy, cytokines + EGF, 72 hours of culture

EGF: epidermal growth factor; recombinant EGF (R&D Systems)
increase in CFCs recovered at day 7 (BM KSL cells [1]; [4]): 2.2 fold
increase in CFU-S12 recovered at day 7 (BM KSL cells [1]; [4]): 2.6 fold
recovery of CFCs in culture (BM KSL cells [1]; 300 cGy BM KSL cells from Tie2Cre;Bak1-/-;BaxFl/- mice, TSF + 20 ng/ml EGF, 72 hours, vs cytokines alone): increased CFCs; also recorded: increase in recovery of CFCs
increase in CFCs (BM KSL cells [1]; [5]): 3 fold
increase in CFU-S12 (BM KSL cells [1]; [5]): 4 fold
increase in BM CFC recovery (BM KSL cells [1]; EGF treatment, 72 hours following radiation exposure, vs TSF alone): 3 fold
regeneration of BM stem and progenitor cells (CFC, CFUS12) (BM KSL cells [1]; Example 1, 300 cGy KSL cells, 7 days with BaxFl+ endothelial cells with and without EGF): induced regeneration of BM stem and progenitor cells
expansion of BM KSL cells and CFU-S12 (BM KSL cells [2]): increased significantly; also recorded: significant expansion
cycling of BM KSL cells from Tie2Cre;Bak1-/-;BaxFl/- mice (BM KSL cells [3]; 300 cGy in vitro, TSF + 20 ng/ml EGF, 72 hours, vs TSF): significantly decreased G0 cells and increased G2/S/M cells; also recorded: significantly increased the cycling
KSL cells in G1 (BM KSL cells [3]; [6]): 51%
KSL cells in G2/S/M phase (BM KSL cells [3]; [6]): 31%
KSL cells remaining in G0 (BM KSL cells [3]; [6]): 17%
phosphorylation of MAPK (MAPK): did not alter the phosphorylation of MAPK
EGFR signaling as measured by EGFR phosphorylation (EGFR): induced EGFR signaling
mice alive and well through day +30 (C57B16 mice): 93%
